Measurements from patent publication US20080255139A1, “Use Of 4- (4-Methylpiperazin-1-Ylmethyl)-N-[4-Methyl-3-(4-(Pyridin-3-Yl)Pyrimidin-2-Ylamino)Phenyl]-Benzamide to Inhibit the Tyrosine Kinase Receptor C-Fms” (priority 2004, published 2008).
“Also recorded” adds a separate entry of the source. Read-outs that look alike come from different tables or passages of the source.

Columns and labels:
FDC-cfms cells = conditions: for Cell count, IL-3, 12 H: 0 μM control 125433; for Cell count, IL-3, 24 H: 0 μM control 257726; for Cell count, IL-3, 48 H: 0 μM control 1123171
[1] = system: M-CSF production by the cultured monocytes; assay: M-CSF ELISA on GM-CSF stimulated monocyte cultures; assay type: cell-based, human
Experimental: M-CSF ELISA. Monocytes are isolated from buffy coats from normal donors, as previously described, e.g. in Dewar A et al., 2003, Leukemia 17:1713-21. Monocyte cultures (1×10^5/mL) are established in 24 well plates in serum deprived medium (SDM; IMDM/1% BSA supplemented with 2 mM L-glutamine, 200 μg/mL transferrin, 10 μg/mL insulin (Actrapid®, Novo Nordisk), 10^−4 M β-mercaptoethanol, 50 μg/mL low density lipoproteins (Sigma)) and stimulated with 20 ng/mL GM-CSF. Supernatants are harvested at 24 h intervals for 5 days, and analysed for M-CSF using an R&D Systems DuoSete ELISA development system according to the manufacturers instructions.

[2] = system: FDC-cfms cells (M-CSF dependent, c-fms); assay: cells; conditions: 12 h, read-out: inhibition of cell growth, M-CSF sole stimulation
[3] = system: FDC-cfms cells (M-CSF dependent, c-fms); conditions: for Cell count, M-CSF, 12 H: 0 μM control 132174; for Cell count, M-CSF, 24 H: 0 μM control 310859; for Cell count, M-CSF, 48 H: 0 μM control 1453642

`Cc1ccc(NC(=O)c2ccc(CN3CCN(C)CC3)cc2)cc1Nc1nccc(-c2cccnc2)n1` [Compound I, 4-(4-methylpiperazin-1-ylmethyl)-N-[4-methyl-3-(4-(pyridin-3-yl)pyrimidin-2-ylamino)phenyl]-benzamide] was tested, and the “effect on cell growth, IL-3 stimulated control cultures” value (FDC-cfms cells; 12 or 24 h, 0.5-5.0 μM Compound I) was “no Compound I-specific effects on cell growth; also recorded: No effect”, the “Cell count, IL-3, 12 H” value (FDC-cfms cells; Compound I 0.5 μM) was 131724 cells/mL and the “Cell count, IL-3, 24 H” value (FDC-cfms cells; Compound I 0.5 μM) was 281975 cells/mL. The “Cell count, IL-3, 48 H” value (FDC-cfms cells; Compound I 0.5 μM) was 1107666 cells/mL, the “Cell count, IL-3, 12 H” value (FDC-cfms cells; Compound I 1 μM) was 126472 cells/mL and the “Cell count, IL-3, 24 H” value (FDC-cfms cells; Compound I 1 μM) was 264007 cells/mL. The “Cell count, IL-3, 48 H” value (FDC-cfms cells; Compound I 1 μM) was 1068150 cells/mL, the “Cell count, IL-3, 12 H” value (FDC-cfms cells; Compound I 5 μM) was 106917 cells/mL and the “Cell count, IL-3, 24 H” value (FDC-cfms cells; Compound I 5 μM) was 197435 cells/mL. For the same compound, the “Cell count, IL-3, 48 H” value (FDC-cfms cells; Compound I 5 μM) was 682771 cells/mL, the “Cell count, IL-3, 12 H” value (FDC-cfms cells; Compound I […]) was 131857 cells/mL and the “Cell count, IL-3, 24 H” value (FDC-cfms cells; Compound I […]) was 247613 cells/mL. The “Cell count, IL-3, 48 H” value (FDC-cfms cells; Compound I […]) was 940233 cells/mL, the “effect on M-CSF production by the cultured monocytes” value ([1]; 1.0 μM Compound I, GM-CSF 20 ng/mL) was “no effect” and the “decrease in M-CSF production” value ([1]; 5.0 μM, GM-CSF stimulated monocytes) was 30%. The inhibition at 5 µM [2] was 50%, the “cell counts, M-CSF” value ([3]; 24 h, 5.0 μM Compound I) was “lower than seeded values” and the “Cell count, M-CSF, 12 H” value ([3]; Compound I 0.5 μM) was 133296 cells/mL. The “Cell count, M-CSF, 24 H” value ([3]; Compound I 0.5 μM) was 339185 cells/mL, the “Cell count, M-CSF, 48 H” value ([3]; Compound I 0.5 μM) was 1577777 cells/mL and the “Cell count, M-CSF, 12 H” value ([3]; Compound I 1 μM) was 130010 cells/mL. The “Cell count, M-CSF, 24 H” value ([3]; Compound I 1 μM) was 311035 cells/mL, the “Cell count, M-CSF, 48 H” value ([3]; Compound I 1 μM) was 1362802 cells/mL and the “Cell count, M-CSF, 12 H” value ([3]; Compound I 5 μM) was 68324 cells/mL. For the same compound, the “Cell count, M-CSF, 24 H” value ([3]; Compound I 5 μM) was 20830 cells/mL, the “Cell count, M-CSF, 48 H” value ([3]; Compound I 5 μM) was 20149 cells/mL and the “Cell count, M-CSF, 12 H” value ([3]; Compound I […]) was 117025 cells/mL. For the same compound, the “Cell count, M-CSF, 24 H” value ([3]; Compound I […]) was 174818 cells/mL and the “Cell count, M-CSF, 48 H” value ([3]; Compound I […]) was 295134 cells/mL.
